Measured values from patent publication US10597388B2, “Pyridazinone herbicides” (FMC CORPORATION, priority 2014, dated 2020).

Columns and labels:
Type in all cases: in vivo
[1] = test system: Italian ryegrass (Lolium multiflorum); assay: Test E greenhouse herbicide test, pre- and postemergence
Outline: (§1)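 Pre- and postemergence sprays, same solvent–surfactant formulation. Substrate: silt loam (pre), peat-based mix (post, 1–4 leaf, 2–18 cm). Readout: visual control rating 0–100 against controls at 14–21 d.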

[2] = test system: soybean (Glycine max); assay: as above
Outline: as §1

[3] = test system: johnsongrass (Sorghum halepense); assay: as above; details: Preemergence
Outline: as §1

[4] = test system: pigweed, palmer (palmer pigweed, Amaranthus palmeri); assay: as above
Outline: as §1

[5] = test system: dayflower (Virginia (VA) dayflower, Commelina virginica); assay: as above
Outline: as §1

[6] = test system: horseweed (Conyza canadensis); assay: as above; details: Postemergence
Outline: as §1

[7] = test system: foxtail, giant (giant foxtail, Setaria faberii); assay: as above; details: Preemergence
Outline: as §1

[8] = test system: nightshade (eastern black nightshade, Solanum ptycanthum); assay: as above; details: Preemergence
Outline: as §1

[9] = test system: crabgrass, large (large crabgrass, Digitaria sanguinalis); assay: as above; details: Preemergence
Outline: as §1

[10] = test system: foxtail, green (green foxtail, Setaria viridis); assay: as above; details: Preemergence
Outline: as §1

[11] = test system: momingglory (Ipomoea coccinea); assay: as above; details: Preemergence
Outline: as §1

[12] = test system: arrowleaf sida (Sida rhombifolia); assay: as above
Outline: as §1

[13] = test system: kochia (Kochia scoparia); assay: as above
Outline: as §1

[14] = test system: velvetleaf (Abutilon theophrasti); assay: as above; details: Preemergence
Outline: as §1

[15] = test system: waterhemp_RES1 (ALS & Triazine resistant common waterhemp, Amaranthus rudis); assay: Test E greenhouse herbicide test, postemergence
Outline: (§2)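 Resistant waterhemp plants grown in peat/vermiculite potting medium were sprayed postemergence at the 1- to 4-leaf stage (2–18 cm tall). After 14 to 21 d in the greenhouse, injury was visually rated against untreated controls on a 0–100 scale, where 0 is no effect and 100 is complete control.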

[16] = test system: waterhemp_RES2 (ALS & HPPD resistant common waterhemp, Amaranthus rudis); assay: Test E greenhouse herbicide test, postemergence
Outline: as §2

[17] = 62 g ai/ha, Postemergence, scale 0 to 100 (0 no effect, 100 complete control)
[18] = 62 g ai/ha, Preemergence, scale 0 to 100 (0 no effect, 100 complete control)
[19] = 125 g ai/ha, Postemergence, scale 0 to 100 (0 no effect, 100 complete control)
[20] = 125 g ai/ha, Preemergence, scale 0 to 100 (0 no effect, 100 complete control)
[21] = 250 g ai/ha, Postemergence, scale 0 to 100 (0 no effect, 100 complete control)
[22] = Postemergence, 31 g ai/ha, visual, scale 0 no effect to 100 complete control
[23] = Preemergence, 31 g ai/ha, scale 0 to 100, 0 no effect, 100 complete control
[24] = Preemergence, 250 g ai/ha, visual, scale 0 no effect to 100 complete control
[25] = 62 g ai/ha, scale 0 to 100 (0 no effect, 100 complete control)
[26] = 31 g ai/ha, scale 0 to 100, 0 no effect, 100 complete control
[27] = 125 g ai/ha, visual, scale 0 no effect to 100 complete control
[28] = 250 g ai/ha, visual, scale 0 no effect to 100 complete control
[29] = Preemergence, 125 g ai/ha, visual, scale 0 no effect to 100 complete control
[30] = 125 g ai/ha, scale 0 to 100 (0 no effect, 100 complete control)
[31] = 250 g ai/ha, scale 0 to 100 (0 no effect, 100 complete control)
[32] = 31 g ai/ha, visual, scale 0 no effect to 100 complete control

CCc1sc2c(C)cc(C)cc2c1-c1c(O)c(C)nn(C)c1=O [Compound 57]
Plant response rating, Ryegrass, Italian [1, 17]: 0
Plant response rating, Ryegrass, Italian [1, 18]: 35
Plant response rating, Ryegrass, Italian [1, 19]: 20
Plant response rating, Ryegrass, Italian [1, 20]: 65
Plant response rating, Ryegrass, Italian [1, 21]: 50
Plant response rating, Ryegrass, Italian [1, 22]: 0
Plant response rating, Ryegrass, Italian [1, 23]: 10
Plant response rating, Ryegrass, Italian [1, 24]: 80
Plant response rating, Soybean [2, 17]: 0
Plant response rating, Soybean [2, 18]: 0
Plant response rating, Soybean [2, 19]: 15
Plant response rating, Soybean [2, 20]: 0
Plant response rating, Soybean [2, 21]: 10
Plant response rating, Soybean [2, 22]: 10
Plant response rating, Soybean [2, 23]: 0
Plant response rating, Soybean [2, 24]: 20
Plant response rating, Johnsongrass [3, 25]: 30
Plant response rating, Johnsongrass [3, 26]: 0
Plant response rating, Johnsongrass [3, 27]: 30
Plant response rating, Johnsongrass [3, 28]: 35
Plant response rating, Pigweed, Palmer [4, 17]: 20
Plant response rating, Pigweed, Palmer [4, 18]: 35
Plant response rating, Pigweed, Palmer [4, 19]: 30
Plant response rating, Pigweed, Palmer [4, 20]: 40
Plant response rating, Pigweed, Palmer [4, 21]: 60
Plant response rating, Pigweed, Palmer [4, 22]: 10
Plant response rating, Pigweed, Palmer [4, 23]: 35
Plant response rating, Pigweed, Palmer [4, 24]: 60
Plant response rating, Dayflower, VA [5, 17]: 15
Plant response rating, Dayflower, VA [5, 18]: 25
Plant response rating, Dayflower, VA [5, 19]: 35
Plant response rating, Dayflower, VA [5, 21]: 30
Plant response rating, Dayflower, VA [5, 22]: 10
Plant response rating, Dayflower, VA [5, 23]: 0
Plant response rating, Dayflower, VA [5, 29]: 30
Plant response rating, Dayflower, VA [5, 24]: 80
Plant response rating, Horseweed [6, 25]: 75
Plant response rating, Horseweed [6, 30]: 75
Plant response rating, Horseweed [6, 31]: 80
Plant response rating, Horseweed [6, 32]: 60
Plant response rating, Foxtail, Giant [7, 25]: 35
Plant response rating, Foxtail, Giant [7, 26]: 5
Plant response rating, Foxtail, Giant [7, 27]: 95
Plant response rating, Foxtail, Giant [7, 28]: 95
Plant response rating, Nightshade [8, 25]: 98
Plant response rating, Nightshade [8, 30]: 98
Plant response rating, Nightshade [8, 26]: 90
Plant response rating, Nightshade [8, 28]: 98
Plant response rating, Crabgrass, Large [9, 25]: 0
Plant response rating, Crabgrass, Large [9, 26]: 0
Plant response rating, Crabgrass, Large [9, 27]: 0
Plant response rating, Crabgrass, Large [9, 28]: 0
Plant response rating, Foxtail, Green [10, 25]: 20
Plant response rating, Foxtail, Green [10, 26]: 0
Plant response rating, Foxtail, Green [10, 27]: 90
Plant response rating, Foxtail, Green [10, 28]: 100
Plant response rating, Morningglory [11, 25]: 40
Plant response rating, Morningglory [11, 30]: 100
Plant response rating, Morningglory [11, 26]: 85
Plant response rating, Morningglory [11, 28]: 100
Plant response rating, Arrowleaf Sida [12, 17]: 20
Plant response rating, Arrowleaf Sida [12, 18]: 0
Plant response rating, Arrowleaf Sida [12, 19]: 40
Plant response rating, Arrowleaf Sida [12, 21]: 45
Plant response rating, Arrowleaf Sida [12, 22]: 10
Plant response rating, Arrowleaf Sida [12, 23]: 0
Plant response rating, Arrowleaf Sida [12, 29]: 50
Plant response rating, Arrowleaf Sida [12, 24]: 40
Plant response rating, Kochia [13, 17]: 70
Plant response rating, Kochia [13, 18]: 65
Plant response rating, Kochia [13, 19]: 60
Plant response rating, Kochia [13, 21]: 75
Plant response rating, Kochia [13, 22]: 50
Plant response rating, Kochia [13, 23]: 20
Plant response rating, Kochia [13, 29]: 75
Plant response rating, Kochia [13, 24]: 100
Plant response rating, Velvetleaf [14, 25]: 65
Plant response rating, Velvetleaf [14, 30]: 95
Plant response rating, Velvetleaf [14, 26]: 30
Plant response rating, Velvetleaf [14, 28]: 100
Plant response rating, Waterhemp_RES1 [15, 32]: 40
Plant response rating, Waterhemp_RES1 [15, 25]: 50
Plant response rating, Waterhemp_RES1 [15, 30]: 40
Plant response rating, Waterhemp_RES1 [15, 31]: 60
Plant response rating, Waterhemp_RES2 [16, 32]: 20
Plant response rating, Waterhemp_RES2 [16, 25]: 10
Plant response rating, Waterhemp_RES2 [16, 30]: 20
Plant response rating, Waterhemp_RES2 [16, 31]: 50
